Source: patent US20140170096A1, “SUNSCREEN COMPOSITIONS” (priority 2011, published 2014)
Entries after “also recorded” stand apart in the source; their conditions may differ. Like-named read-outs stand apart in the source and are kept apart here.

Tests used:
[1] = system: viruses in water surrounding coral nubbins; assay: Viral abundance and viral enrichment in seawater surrounding coral nubbins (microcosm incubation); details: for Total viral abundances (TVN): seawater surrounding Acropora sp. nubbins, compound concentration per Table 2; for Viral enrichment factor (VEF): ratio of viral abundances, end vs start of incubation
Method: (§1) In situ tests were performed on nubbins (i.e., small branches of about 3-6 cm) of the stony coral Acropora sp. The nubbins were incubated in microcosms in presence of known concentrations of various ingredients potentially to be included in the composition of the eco-compatible sunscreen cream. In particular, coral nubbins (including more than 3000 polyps each) were collected by scuba divers from the same colony, located at a depth of about 3 m on the edge of the reef slope. Sampling of nubbins was performed by means of forceps. The nubbins were washed with seawater filtered onto 0.02-μm filters to eliminate viruses and prokaryotes. Each microcosm was prepared with a replicate set of nubbins (n=3) immersed in sterile polyethylene bags (Whirl-pack, Nasco, Fort Atkinson, Wis., USA) filled with 2 L filtered seawater. A total of 27 microcosms were prepared, in order to test 20 ingredients with the respective positive and negative controls. The microcosms were incubated at in situ temperature and light conditions for 72 hours.
(§2) After subsampling, sea water was transferred into sterile test tubes without use of fixatives and stored at −20° C. until laboratory analysis for quantification of viral and prokaryotic abundance. Once in laboratory, the water samples were immediately processed. Briefly, 200 uL sea water were diluted 1:10 with prefiltered MilliQ water, through 0.02-μm pore filters (Anodisc filter; 25-mm diameter, Al2O3; Whatman) and stained with 20 μL SYBR Green (stock solution diluted 1:20; Invitrogen, Carlsbad, Calif., USA). […] Slides were stored at −20° C. until microscopy analysis. Virus and prokaryote counts were obtained by epifluorescence microscopy (magnification, ×1000; Zeiss Axioplan) by examining at least 10 optical fields, that is, at least 200 cells or viruses per replicate. Viral (and prokaryotic) enrichment was calculated as ratio between virus (and prokaryote) abundances and virus (and prokaryote) abundance at the […] of the experiment.

[2] = system: stony coral Acropora sp. nubbins; assay: Quantification of coral bleaching by colorimetric (CMYK) analysis of digital photographs; format: in vivo; details: for Number of color channels (of 4, CMYK) significantly altered: after 72 h of incubation; for One-way ANOVA probability level, color component Black (K) / One-way ANOVA probability level, color component Cyan (C) / One-way ANOVA probability level, color component Magenta (M) / One-way ANOVA probability level, color component Yellow (Y): coral color change, start vs after treatment
Method: as §1
Photographs were taken under identical illumination with a Canon PowerShot A620 digital camera (Canon Inc., Tokyo, Japan) with a scale meter on the background. The photos were successively analyzed with a photo-editing software (Adobe Photoshop CS2) for color composition [cyan, magenta, yellow, black (CMYK)]. Levels of bleaching were measured as the difference between the corals' color at the beginning of the experiment and after treatments. Variations in the percentage of the different color components (CMYK) were analyzed with one-way analysis of variance (ANOVA). To rank the bleaching effect due to the compounds tested, a Bray-Curtis similarity matrix was prepared and a multidimensional scaling analysis of the shifts in CMYK color composition of treated corals was performed using Primer 5.0 software (Primer-E Ltd., Plymouth, UK). Bleaching rates were measured as the dissimilarity percentage in CMYK color composition between treated and control corals using the SIMPER tool of Primer 5.0 software (Primer-E Ltd).

[3] = system: symbiotic zooxanthellae released from coral nubbins; assay: Zooxanthellae counts: zooxanthellae released in water surrounding coral nubbins; format: in vivo, Acropora sp.; details: for Healthy zooxanthellae released / Pale zooxanthellae released / Total zooxanthellae released / Transparent (i.e., dead) zooxanthellae released: end of incubation (72 h); for Percentage of healthy zooxanthellae released / Percentage of pale zooxanthellae released / Percentage of transparent zooxanthellae released: of total released; for Abundance of released zooxanthellae compared with the BLK system: statistical analysis, P<0.01
Method: as §1
Subsamples (50 mL) of seawater surrounding coral nubbins were collected at the start of the experiment (T0) and after 6, 12, 24, 36, 48 and 72 hours of incubation. The subsamples were fixed in 3% glutaraldehyde and then about 6.0 ml of each replicate was filtered through 2.0-μm polycarbonate filters. Filters were mounted on glass slides and zooxanthellae counted under epifluorescence microscopy (Zeiss Axioplan, Carl Zeiss Inc., Jena, Germany; ×400 and ×1000) using standard and UV light.

[4] = system: prokaryotes in water surrounding coral nubbins; assay: Prokaryotic (bacterial) abundance and enrichment in seawater surrounding coral nubbins (microcosm incubation); details: seawater surrounding Acropora sp. nubbins
Method: as §1, §2

[5] = system: coral reefs; assay: Summary of eco-compatibility of tested products with coral reefs; parameters: species or system Acropora sp.
Method: In order to select the most eco-compatible products for each group of compounds (i.e., base cream, fragrance, antioxidants and filters) the following criteria were selected:
1. coral bleaching level; 2. degree of release of symbiotic zooxanthellae; 3. zooxanthellae health conditions; 4. viral enrichment in the incubation medium with respect to controls.

| Compound | Total viral abundances (TVN) ([1]; incubation 0 (start)) | Total viral abundances (TVN) ([1]; incubation 12 h) | Viral enrichment factor (VEF) [1] | Healthy zooxanthellae released [3] | Pale zooxanthellae released [3] | Total zooxanthellae released [3] | Transparent (i.e., dead) zooxanthellae released [3] | Percentage of healthy zooxanthellae released ([3]; end of incubation) | Percentage of pale zooxanthellae released ([3]; end of incubation) | Percentage of transparent zooxanthellae released ([3]; end of incubation) | Abundance of released zooxanthellae compared with the BLK system [3] | Bacterial abundance (total bacterial number, TBN) ([4]; incubation 0 (start)) | Bacterial abundance (total bacterial number, TBN) ([4]; incubation 12 h) | further results |
| --- | --- | --- | --- | --- | --- | --- | --- | --- | --- | --- | --- | --- | --- | --- |
| 2-phospho-ascorbic acid trisodium salt [System D18] | 3.70E+05 viruses ml^−1 | 2.51E+06 viruses ml^−1 | 7.09 | 1.14E+03 cells ml^−1 | 1.09E+04 cells ml^−1 | 2.11E+04 cells ml^−1 | 9.06E+03 cells ml^−1 | 5% | 52% | 43% | significantly higher | 3.86E+04 | 1.39E+06 | Number of color channels (of 4, CMYK) significantly altered [2]: 4; One-way ANOVA probability level, color component Black (K) [2]: ** (** = P < 0.01); One-way ANOVA probability level, color component Cyan (C) [2]: ** (** = P < 0.01); One-way ANOVA probability level, color component Magenta (M) [2]: ** (** = P < 0.01); One-way ANOVA probability level, color component Yellow (Y) [2]: * (* = P < 0.05); Final abundance of zooxanthellae in water surrounding the coral nubbins ([3]; end of incubation): 4.45 ×10^4 cell ml^−1 |
| CC(=O)Oc1c(C)c(C)c2c(c1C)CCC(C)(CCC[C@H](C)CCC[C@H](C)CCCC(C)C)O2 (mixture of isomers) [System D17, DL-tocopherol-acetate] | 3.49E+05 viruses ml^−1 | 2.83E+06 viruses ml^−1 | 8.36 | 1.48E+03 cells ml^−1 | 1.88E+04 cells ml^−1 | 4.45E+04 cells ml^−1 | 2.42E+04 cells ml^−1 | 3% | 42% | 54% | significantly higher | 5.80E+04 | 1.42E+06 | Eco-compatibility ([5]; criteria: bleaching level, zooxanthellae release, zooxanthellae health, viral enrichment, listed as Tocopheryl acetate): Highly compatible; Eco-compatibility ([5]; criteria: bleaching level, zooxanthellae release, zooxanthellae health, viral enrichment, listed as tocopheryl acetate): greater eco-compatibility |
| CO[C@@]12[C@H](COC(N)=O)C3=C(C(=O)C(C)=C(N)C3=O)N1C[C@@H]1N[C@@H]12 [MITO, Mitomycin C, reference compound] | 1.11E+05 viruses ml^−1 | 1.53E+06 viruses ml^−1 | – | 0.00E+00 cells ml^−1 | 5.25E+03 cells ml^−1 | 2.20E+04 cells ml^−1 | 1.68E+04 cells ml^−1 | 0% | 24% | 76% | – | 1.11E+05 | 1.53E+06 | Number of color channels (of 4, CMYK) significantly altered [2]: 4; One-way ANOVA probability level, color component Black (K) [2]: ** (** = P < 0.01); One-way ANOVA probability level, color component Cyan (C) [2]: ** (** = P < 0.01); One-way ANOVA probability level, color component Magenta (M) [2]: ** (** = P < 0.01); One-way ANOVA probability level, color component Yellow (Y) [2]: ** (** = P < 0.01) |
| Cc1c(C)c2c(c(C)c1O)CC[C@@](C)(CCC[C@H](C)CCC[C@H](C)CCCC(C)C)O2 [System D16, Alpha-tocopherol] | 3.24E+05 viruses ml^−1 | 1.46E+06 viruses ml^−1 | 4.54 | 4.09E+03 cells ml^−1 | 1.25E+04 cells ml^−1 | 2.67E+04 cells ml^−1 | 1.01E+04 cells ml^−1 | 15% | 47% | 38% | significantly higher | 3.78E+04 | – | Eco-compatibility ([5]; criteria: bleaching level, zooxanthellae release, zooxanthellae health, viral enrichment, listed as Tocopherol): Highly compatible; Eco-compatibility ([5]; criteria: bleaching level, zooxanthellae release, zooxanthellae health, viral enrichment, listed as tocopherol): greater eco-compatibility |
| CC(C)(C)CC(C)(C)c1cc(Cc2cc(C(C)(C)CC(C)(C)C)cc(-n3nc4ccccc4n3)c2O)c(O)c(-n2nc3ccccc3n2)c1 [System D22] | 5.06E+05 viruses ml^−1 | 2.99E+06 viruses ml^−1 | 6.16 | 4.70E+02 cells ml^−1 | 6.91E+03 cells ml^−1 | 1.80E+04 cells ml^−1 | 1.06E+04 cells ml^−1 | 3% | 38% | 59% | – | 5.47E+04 | 9.18E+05 | Eco-compatibility ([5]; criteria: bleaching level, zooxanthellae release, zooxanthellae health, viral enrichment, listed as MBBT): greater eco-compatibility; also recorded: Highly compatible; Decrease of VPR ([1]; after incubations): up to 10 times |
| CCCCC(CC)COC(=O)c1ccc(Nc2nc(Nc3ccc(C(=O)OCC(CC)CCCC)cc3)nc(Nc3ccc(C(=O)OCC(CC)CCCC)cc3)n2)cc1 (stereo not drawn) [System D24, ethylhexyl triazone] | 9.58E+04 viruses ml^−1 | 1.08E+06 viruses ml^−1 | 12.58 | 2.68E+02 cells ml^−1 | 8.39E+03 cells ml^−1 | 1.89E+04 cells ml^−1 | 1.02E+04 cells ml^−1 | 1% | 44% | 54% | – | 2.09E+04 | 7.41E+05 | Eco-compatibility [5]: Compatible |
| CCCCCCOC(=O)c1ccccc1C(=O)c1ccc(N(CC)CC)cc1O [System D25, 2-[4-(diethylamine)-2-hydroxybenzoyl]hexyl benzoate] | 3.67E+05 viruses ml^−1 | 2.63E+06 viruses ml^−1 | 7.44 | 3.35E+02 cells ml^−1 | 8.86E+03 cells ml^−1 | 1.64E+04 cells ml^−1 | 7.25E+03 cells ml^−1 | 2% | 54% | 44% | – | 3.67E+05 | 2.63E+06 | Eco-compatibility ([5]; criteria: bleaching level, zooxanthellae release, zooxanthellae health, viral enrichment, listed as DHHB): greater eco-compatibility; also recorded: Highly compatible |
| C/C=C/C=C/C(=O)O [sorbic acid] | – | – | – | – | – | – | – | – | – | – | – | – | – | Harm to the marine environment of coral reefs [5]: did not prove harmful |
